Measurements taken from patent publication US20080313748A1, “Transgenic Non-Human Animals Comprising the Human Udp-Glucuronosyltransferase 1A (Ugt1a) Gene Locus and Methods of Using Them” (priority 2004, published 2008).
“And” between values parts separate entries of the source, which are not always exact repeats. Identical values can stand only once. “Also recorded” adds a separate entry of the source. Like-named read-outs stand apart in the source and are kept apart here.

What was measured:
[1] = tested on: β-estradiol UGT activity; experiment: β-estradiol UGT activity in intestinal microsomes from PCN treated wild type mice; type: in vivo, mouse; settings: WT mice
Protocol: (§1) Microsomal Protein Isolation from Transgenic Mouse Tissues.
(§2) Reactions were terminated by the addition of 100 μl of methanol followed by centrifugation at top speed for 15 minutes. A 100 μl sample of the quenched reaction was spotted onto pre-adsorbent area of the TLC plate and develop in n-butanol/acetone/acetic acid/water (35:35:10:20) to achieve separation. ^14C-Labeled glucuronides were visualized with a STORM 820™ PhosphorImager (Molecular Dynamics/Amersham Biosciences). Silica gel in regions corresponding to the glucuronide bands were then scraped from the TLC plates, radioactivity measured by liquid scintillation counting, and specific catalytic activities were calculated in picomoles of glucuronide formed/mg of protein/min.
(§3) Values are the mean±S.E.M from triplicate experiments.

[2] = tested on: UGT1A1
Protocol: (§4) Immunoblot Analysis. All Western blots were performed using NuPAGE Bis-Tris polyacrylamide gels as outlined by the supplier (Invitrogen, Carlsbad, Calif.). Protein was heated at 70° C. for 10 min in loading buffer and resolved in 4-12% Bis-Tris gels under denaturing conditions (50 mM MOPS, 50 mM Tris-base, pH 7.7, 0.1% SDS, 1 mM EDTA) prior to transferring the proteins to polyvinylidene difluoride membrane using a semidry transfer system (Norvex, England). The membrane was blocked with 5% nonfat dry milk in 10 mM Tris-HCl, pH7.4 containing 0.15 M NaCl and 0.05% Tween 20 (Tris-buffered saline) for 1 h at room temperature, followed by incubation with primary antibodies (mouse anti-human UGT1A1, UGT1A4 or UGT1A6) in Tris-buffered saline overnight at 4° C. Membranes were washed and exposed to horseradish peroxidase-conjugated secondary antibodies for 1 h at room temperature. Each membrane was again washed and the conjugated horseradish peroxidase was detected using the ECL plus Western blotting detection system (Amersham) and the proteins detected following exposure to X-ray film.

[3] = tested on: mouse Cyp3a11; experiment: Cyp3a11 RT-PCR in primary hepatocytes from Tg-UGT1c mice; settings: primary hepatocytes treated with PCN
[4] = tested on: UGT1A gene transcripts (human UGT1 locus); experiment: Isoform-specific RT-PCR of UGT1A gene transcripts in tissues of treated Tg-UGT1c mice; type: in vivo, mouse; settings: for UGT1A1 RNA induction / UGT1A4 RNA / UGT1A6 RNA induction / UGT1A gene transcript induction: RT-PCR; for UGT1A gene transcript induction: small and large intestine, i.p. 3 days
Protocol: Analysis of UGT1 gene expression patterns by reverse transcription-PCR: For RNA isolation from transgenic and wild type (WT) mouse tissues, the tissues from three animals were combined as described in the methods that outline the preparation of microsomal proteins. After pulverizing in liquid nitrogen, approximately 100 mg of tissue was homogenized in 1 ml of TRIzol™ solution, and the RNA extracted following the manufacturer's instructions. For each reverse transcription reaction, 2 μg of total RNA was denatured by heating and cDNA synthesized in 20 μl using the Omniscript RT™ kit (Qiagen) according to the manufacturer's instructions. From this reaction, 2 μl of the cDNA reaction was employed in each PCR reaction. Each PCR reaction contained 0.2 μM of mouse β-actin primers, 0.4 μM of each of the UGT1A specific oligonucleotide primer pair (11;15;50), and 15 μl HOTSTART MASTERMIX™ (Qiagen) in a 30 μl reaction. For UGT1A1, UGT1A3, UGT1A4, UGT1A5, UGT1A6, UGT1A7, UGT1A9 and UGT1A10 the polymerase was activated at 95° C. for 15 minutes followed by 30 cycles of 95° C. for 30 sec, 63° C. for 30 sec, and 72° C. for 45 sec, and a final extension at 72° C. for seven minutes. For UGT1A8 PCR amplification, the polymerase was activated at 95° C. for 15 min followed by 30 cycles of 95° C. for 30 sec, 58° C. for 30 sec, and 72° C. for 45 sec, and a final extension at 72° C. for seven minutes. Analysis of expressed RNA included an antisense oligonucleotide specific for the common region that encoded exon 2, while all of the sense primers encoded a highly specific segment of each exon 1 sequence that allowed for the unique identification of each UGT1A RNA. PCR reactions were carried out in a PerkinElmer Life Sciences GENEAMP™ DNA thermocycler PCR system. Ten microliters of each PCR product was resolved on a 1.5% agarose gel containing 1 μg/ml ethidium bromide and photographed using Polaroid 665 positive/negative film (Polaroid, Cambridge, Mass.).
(§5) For both TCDD and PCN, the administration was by the intraperitoneal route, and each mouse was treated every 24 hours over a three day period. Tissues from three mice were then pooled and pulverized under liquid nitrogen, and samples used for microsomal preparation as well as for the isolation of total RNA.
(§6) Three Tg-UGT^1c or wild type (WT) mice were treated by intraperitoneal injection every 24 hours with either DMSO, TCDD (16 μg/kg) or PCN (10 mg/kg) for 3 days. After 72 hours, the small intestines from each treatment group were combined and the large intestines from each treatment group were combined and the tissues pulverized under liquid nitrogen. A sample of each tissue was then used to prepare microsomes or to isolate total RNA. FIG. 4A: Western blot analysis of small and large intestinal microsomal protein using UGT1A1-, UGT1A4- or UGT1A6 specific antibodies. Included as control is a sample of each protein generated from the expression of cDNAs in stably transfected HEK293 cells. FIG. 4B: RNA prepared from the same samples of tissue were used in RT-PCR studies and the isoform specific products identified in ethidium bromide stained agarose gels.
Induction of the UGT1 locus in liver by PCN and TCDD. […] Wild type and Tg-UGT^1c mice were treated every 24 hours with TCDD (16 μg/kg) or PCN (10 mg/kg) by intraperitoneal injection for 3 days, and the livers from three animals per group combined and used to prepare microsomes or to isolate total RNA. FIG. 6A: Samples of liver microsomal protein (10 μg) was separated by SDS-polyacrylamide gel electrophoresis, and immunoblot analysis performed using UGT1A1-, UGT1A4 or UGT1A6-antibodies. FIG. 6B: Total liver RNA (4 μg) was used in reverse transcription reactions followed by PCR analysis using isozyme-specific oligonucleotides.

[5] = tested on: β-estradiol UGT activity; experiment: β-estradiol UGT activity in intestinal microsomes from PCN and TCDD treated Tg-UGT1c mice; type: in vivo, mouse; settings: for Induction of β-estradiol glucuronidation: large intestine microsomes, Tg-UGT1c mice
Protocol: as §1, §2, §3

[6] = tested on: human UGT1A4; settings: for UGT1A4 protein induction: small and large intestine
Text: (§7) Microsomal Protein Isolation from Transgenic Mouse Tissues. Using three animals per group, the liver, small and large intestinal tissues were collected from Tg-UGT1 and wild type mice. For the small and large intestine, the tissue was dissected open lengthwise and the luminal surface gently rinsed in 1.15% KCl before freezing on dry ice. Tissue samples from each treatment group were combined and frozen in liquid nitrogen in a porcelain mortar and pulverized under liquid nitrogen. A sample of the pulverized tissue was added to 5 volumes of 1.15% ice cold KCl and the tissue homogenized using a motorized glass-teflon homogenizer. The tissue homogenate was first centrifuged at 2,000×g for 10 min at 4° C. and the supernatant was collected. The supernatant was then centrifuged at 9,000×g for 10 min at 4° C. and this resulting supernatant centrifuged at 100,000×g for 60 min at 4° C. The pellet was resuspended in buffer (50 mM Tris-HCl pH 7.4, 10 mM MgCl2, 1 mM PMSF) and the protein concentration determined by the Bradford method.
as §4, §5, §6
(§8) Induction of the UGT1 locus in liver by PCN and TCDD. […] Wild type and Tg-UGT^1c mice were treated every 24 hours with TCDD (16 μg/kg) or PCN (10 mg/kg) by intraperitoneal injection for 3 days, and the livers from three animals per group combined and used to prepare microsomes or to isolate total RNA.

[7] = tested on: human UGT1A6; settings: for UGT1A6 protein regulation: small and large intestine
Text: as §7, §4, §5, §6, §8

[8] = tested on: human UGT1A1; settings: for UGT1A1 protein induction: small and large intestinal microsomes, TCDD 16 μg/kg or PCN
Text: as §7, §4, §5, §6, §8

[9] = tested on: mouse Cyp1a1; experiment: Cyp1a1 Western blot in primary hepatocytes from Tg-UGT1c mice; type: cell-based
Text: Isolation and treatment of mouse transgenic primary hepatocytes. […] Mice were anesthetized by isoflurane inhalation.
Control hepatocyte cultures contained only DMSO (D).

[10] = tested on: UGT1A gene transcripts (human UGT1 locus); experiment: Isoform-specific RT-PCR of UGT1A gene transcripts in tissues of treated Tg-UGT1c mice; type: in vivo, mouse; settings: liver and small intestine, UGT1+/- mice treated with TCDD
[11] = Tg-UGT1c mice, i.p. every 24 h for 3 days
[12] = liver microsomes, Tg-UGT1c mice, i.p. every 24 h for 3 days

With `CC(=O)[C@H]1[C@H](C#N)C[C@H]2[C@@H]3CC=C4C[C@@H](O)CC[C@]4(C)[C@H]3CC[C@@]21C` [PCN, Pregnenolone-16α-carbonitrile] as the molecule, how does the “Induction of β-estradiol glucuronidation” value ([1]; large intestine microsomes) read?
The value was “induced β-estradiol glucuronidation significantly”.

And the “Induction of UGT activity (β-estradiol)” value ([1]; small intestine microsomes)?
The value was “induced a minimal amount of UGT activity”.

What about the “UGT1A1 induction, hepatocytes cultured in dexamethasone” value [2] of the same molecule?
The value was “significant induction”.

What about the “Cyp3a11 mRNA induction” value [3] of the same molecule?
Its value is “induction”.

And the “UGT1A1 RNA induction” value ([4]; liver, Tg-UGT1c mice)?
The value was “significant induction”.

And the “UGT1A4 RNA” value ([4]; liver, Tg-UGT1c mice)?
The value was “increase”.

And the “UGT1A6 RNA induction” value ([4]; liver, Tg-UGT1c mice)?
Its value is “induced”.

And the “Expression of UGT1A1, UGT1A3, UGT1A4, UGT1A6 and UGT1A9 gene transcripts” value ([4]; liver, Tg-UGT1c mice)?
The value was “induce expression of each of these genes”.

What about the “UGT1A gene transcript induction” value ([4]; Tg-UGT1c mice) of the same molecule?
The value was “induction of all of the UGT1A gene transcripts”.

What about the “Induction of β-estradiol glucuronidation” value [5] of the same molecule?
The value was “induced β-estradiol glucuronidation significantly”.

What about the “β-estradiol glucuronidation activity, induced level over induced level in WT mice” value ([5]; small intestine microsomes, PCN treated Tg-UGT1c mice vs PCN treated WT mice) of the same molecule?
The value was about 10 fold.

And the “Microsomal UGT1A4 protein induction” value ([6]; mouse, in vivo, ip)?
The value was “induction”.

What about the UGT1A4 protein induction [6, 11] of the same molecule?
The UGT1A4 protein induction was “inducible in small and large intestine”.

And the “Microsomal UGT1A6 protein induction” value ([7]; mouse, in vivo, ip)?
Its value is “induction”.

And the UGT1A6 protein regulation [7, 11]?
Its UGT1A6 protein regulation is “predominantly regulated only in large intestine”.

What about the “Microsomal UGT1A1 protein induction” value ([8]; mouse, in vivo, ip) of the same molecule?
Its value is “induction”.

What about the UGT1A1 protein induction [8, 11] of the same molecule?
Its UGT1A1 protein induction is “inducible”.

Which “UGT1A1 induction in presence of dexamethasone over the levels obtained only with TCDD treatment” value ([2]; primary hepatocytes cultured in 0.1 μM dexamethasone and treated with TCDD) does the source give for `Clc1cc2c(cc1Cl)Oc1cc(Cl)c(Cl)cc1O2` [TCDD, 2,3,7,8-Tetrachlorodibenzo-p-dioxin] here?
Its value is 10 fold and > 10 fold.

What about the UGT1A1 induction ([2]; primary hepatocytes, compound alone, TCDD 10 nM 72 hours, PCN 10 μM, dexamethasone 0.1 μM) of the same molecule?
The UGT1A1 induction was “induction”.

What about the “Mouse Cyp1a1 induction” value ([9]; TCDD 72 hours) of the same molecule?
The value was “induction”.

What about the “Synergistic induction of Cyp1a1 in presence of glucocorticoids” value ([9]; TCDD with 0.1 μM dexamethasone) of the same molecule?
The value was “did not observe a synergistic induction”.

What about the “UGT1A1 RNA induction” value ([4]; liver, Tg-UGT1c mice) of the same molecule?
Its value is “significant induction”.

And the “UGT1A4 RNA” value ([4]; liver, Tg-UGT1c mice)?
The value was “increase”.

And the “UGT1A6 RNA induction” value ([4]; liver, Tg-UGT1c mice)?
The value was “induced”.

And the “Expression of UGT1A1, UGT1A3, UGT1A4, UGT1A6 and UGT1A9 gene transcripts” value ([4]; liver, Tg-UGT1c mice)?
Its value is “induce expression of each of these genes”.

What about the UGT1A10 induction ([4]; liver, Tg-UGT1c mice) of the same molecule?
Its UGT1A10 induction is “induce; also recorded: significantly induced”.

And the “Regulation of UGT1A5, UGT1A7 and UGT1A8” value ([4]; liver, Tg-UGT1 mice)?
Its value is “not regulated”.

And the “UGT1A gene transcript induction” value ([4]; Tg-UGT1c mice)?
The value was “induction of all of the UGT1A gene transcripts”.

What about the “Induction of β-estradiol glucuronidation” value [5] of the same molecule?
Its value is “most significant induction”.

What about the “Expression of 1A1 and 1A6” value [10] of the same molecule?
The value was “elevated expression”.

And the “Microsomal UGT1A4 protein induction” value [6, 12]?
The value was “induction”.

What about the UGT1A4 protein induction [6, 11] of the same molecule?
Its UGT1A4 protein induction is “inducible in small and large intestine”.

And the “Microsomal UGT1A6 protein induction” value [7, 12]?
The value was “induction”.

And the UGT1A6 protein regulation [7, 11]?
Its UGT1A6 protein regulation is “predominantly regulated only in large intestine”.

What about the “Microsomal UGT1A1 protein induction” value [8, 12] of the same molecule?
Its value is “induction”.

And the UGT1A1 protein induction [8, 11]?
Its UGT1A1 protein induction is “inducible”.
